# Laboratory results from PubChem BioAssay (NCI).
#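 Five compound concentrations were applied to cells in 96-well plates for 48 hours; endpoints were derived by simple linear interpolation of the resulting dose-response curve. GI50 is the concentration that inhibits growth by half. Definition used: TGI = concentration required for complete inhibition of growth.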
# Tests used:
# Experiment in all cases: NCI anticancer screen, dose series, 48 h
# [1] = tested on: NCI/ADR-RES ovarian
# [2] = tested on: NCI-H522 lung
# [3] = tested on: OVCAR-3 ovarian
# [4] = tested on: SK-MEL-5 melanoma
# [5] = tested on: TK-10 renal
# [6] = tested on: DU-145 prostate
# [7] = tested on: A549 NSCLC
# [8] = tested on: HT29 colon
# [9] = tested on: SN12C renal
# [10] = tested on: SF-539 CNS
# [11] = tested on: MOLT-4 leukemia
# [12] = tested on: HOP-92 NSCLC
# [13] = tested on: HCT-116 colon
# [14] = tested on: K-562 leukemia
# [15] = tested on: MDA-MB-435
# [16] = tested on: SNB-75 CNS
# [17] = tested on: MCF7 breast
# [18] = tested on: MALME-3M melanoma
# [19] = tested on: PC-3 prostate
# [20] = tested on: A498 renal
# [21] = tested on: UO-31 renal
# [22] = tested on: RXF 393 renal
# [23] = tested on: OVCAR-8 ovarian
# [24] = tested on: BT-549 breast
# [25] = tested on: NCI-H460 lung
# [26] = tested on: SF-295 CNS
# [27] = tested on: OVCAR-4 ovarian
# [28] = tested on: SNB-19 CNS
# [29] = tested on: SK-MEL-2 melanoma
# [30] = tested on: LOX IMVI melanoma
# [31] = tested on: HS 578T breast
# [32] = tested on: CCRF-CEM leukemia
# [33] = tested on: NCI-H23 lung
# [34] = tested on: HOP-62 NSCLC
# [35] = tested on: U251 CNS
# [36] = tested on: KM12 colon
# [37] = tested on: NCI-H226 lung
# [38] = tested on: SR leukemia
# [39] = tested on: CAKI-1 renal
# [40] = tested on: T-47D breast
# [41] = tested on: SW-620 colon
# [42] = tested on: HCT-15 colon
# [43] = tested on: ACHN renal
# [44] = tested on: EKVX NSCLC
# [45] = tested on: 786-0 renal
# [46] = tested on: MDA-MB-231 breast
# [47] = tested on: MDA-MB-468 breast
# [48] = tested on: M14 melanoma
# [49] = tested on: SF-268 CNS
# [50] = tested on: HL-60(TB) leukemia
# [51] = tested on: OVCAR-5 ovarian
# [52] = tested on: UACC-62 melanoma
# [53] = tested on: IGROV1 ovarian
# [54] = tested on: HCC-2998 colon
# [55] = tested on: SK-OV-3 ovarian
# [56] = tested on: COLO 205 colon
# [57] = tested on: UACC-257 melanoma
# [58] = tested on: SK-MEL-28 melanoma
# [59] = tested on: RPMI-8226 leukemia
compound,measurement,setting,value
CC(C)(C)c1cc(/C=C2\S/C(=N/c3ncn[nH]3)NC2=O)cc(C(C)(C)C)c1O,GI50,[1],0.472 µM
same,TGI,[1],14.4 µM
same,GI50,[2],3.78 µM
same,TGI,[2],17.9 µM
same,GI50,[3],2.4 µM
same,TGI,[3],15.2 µM
same,GI50,[4],1.36 µM
same,TGI,[4],9.78 µM
same,GI50,[5],4.82 µM
same,TGI,[5],20.2 µM
same,GI50,[6],2.53 µM
same,TGI,[6],21.5 µM
same,GI50,[7],1.12 µM
same,TGI,[7],13.8 µM
same,GI50,[8],3.03 µM
same,TGI,[8],19.4 µM
same,GI50,[9],2.08 µM
same,TGI,[9],13.3 µM
same,GI50,[10],2.89 µM
same,TGI,[10],12.6 µM
same,GI50,[11],1.16 µM
same,TGI,[11],13.7 µM
same,GI50,[12],1.72 µM
same,TGI,[12],13.4 µM
same,GI50,[13],0.978 µM
same,TGI,[13],11.1 µM
same,GI50,[14],1.44 µM
same,TGI,[14],54.3 µM
same,GI50,[15],2.77 µM
same,TGI,[15],14.9 µM
same,GI50,[16],2.34 µM
same,TGI,[16],13.6 µM
same,GI50,[17],1.83 µM
same,TGI,[17],13 µM
same,GI50,[18],3.74 µM
same,TGI,[18],18.9 µM
same,GI50,[19],0.762 µM
same,TGI,[19],22.1 µM
same,GI50,[20],1.77 µM
same,TGI,[20],10.5 µM
same,GI50,[21],0.882 µM
same,TGI,[21],12.3 µM
same,GI50,[22],2.03 µM
same,TGI,[22],8.35 µM
same,GI50,[23],1.76 µM
same,TGI,[23],14.3 µM
same,GI50,[24],2.31 µM
same,TGI,[24],11.8 µM
same,GI50,[25],0.402 µM
same,TGI,[25],10.1 µM
same,GI50,[26],0.593 µM
same,TGI,[26],12.7 µM
same,GI50,[27],2.31 µM
same,TGI,[27],16.3 µM
same,GI50,[28],1.5 µM
same,TGI,[28],12.9 µM
same,GI50,[29],2.63 µM
same,TGI,[29],15.9 µM
same,GI50,[30],0.71 µM
same,TGI,[30],12.7 µM
same,GI50,[31],2.37 µM
same,TGI,[31],8.47 µM
same,GI50,[32],0.706 µM
same,TGI,[32],6.5 µM
same,GI50,[33],2.45 µM
same,TGI,[33],17.3 µM
same,GI50,[34],0.999 µM
same,TGI,[34],18.7 µM
same,GI50,[35],0.801 µM
same,TGI,[35],7.9 µM
same,GI50,[36],3.79 µM
same,TGI,[36],17 µM
same,GI50,[37],1.8 µM
same,TGI,[37],14.3 µM
same,GI50,[38],0.935 µM
same,TGI,[38],29.8 µM
same,GI50,[39],1.37 µM
same,TGI,[39],16.7 µM
same,GI50,[40],2.29 µM
same,TGI,[40],44.4 µM
same,GI50,[41],2.13 µM
same,TGI,[41],13.7 µM
same,GI50,[42],0.455 µM
same,TGI,[42],12.8 µM
same,GI50,[43],0.691 µM
same,TGI,[43],12.6 µM
same,GI50,[44],2.15 µM
same,TGI,[44],12.1 µM
same,GI50,[45],2.95 µM
same,TGI,[45],13.3 µM
same,GI50,[46],2.91 µM
same,TGI,[46],14.8 µM
same,GI50,[47],2.75 µM
same,TGI,[47],15.5 µM
same,GI50,[48],1.98 µM
same,TGI,[48],16.3 µM
same,GI50,[49],2.61 µM
same,TGI,[49],16.6 µM
same,GI50,[50],2.73 µM
same,TGI,[50],18 µM
same,GI50,[51],4.52 µM
same,TGI,[51],17.7 µM
same,GI50,[52],2.28 µM
same,TGI,[52],11.8 µM
same,GI50,[53],2.04 µM
same,TGI,[53],14.7 µM
same,GI50,[54],3.23 µM
same,TGI,[54],16.9 µM
same,GI50,[55],4.83 µM
same,TGI,[55],20.5 µM
same,GI50,[56],1.99 µM
same,TGI,[56],12.8 µM
same,GI50,[57],3.85 µM
same,TGI,[57],16.7 µM
same,GI50,[58],2.93 µM
same,TGI,[58],14.4 µM
same,GI50,[59],2.6 µM
same,TGI,[59],33.8 µM
